Results as given in paper PMC9166630, “SAR Probing of KX2-391 Provided Analogues With Juxtaposed Activity Profile Against Major Oncogenic Kinases” (Frontiers in Oncology, 2022).
Where “and” joins values, the source holds several entries; their conditions need not be identical. Identical values can stand only once.

What was measured:
[1] = system: C-Jun; test: Human phosphokinase array, c-Jun; format: cell-based
From the text: The kinome tree representation (Figure 7C), which was generated by raising the Kinase Score cut-off to >1.2, confirmed that, unlike tirbanibulin and our prototype molecule KX1-136, 4e’s effects were more observable on kinases other than the Src family such as the Eph and TEC families. […] Therefore, we screened compound 4e using the Human Phospho-Kinase Array® kit from R&D systems (Minneapolis, MN, USA). In this system, 35 phosphorylated YK and serine-threonine kinase (STK) enzymes in the untreated (control) and treated (test) HL60 cell lysates were captured on nitrocellulose membrane, pre-spotted with phosphokinase-specific capture antibodies, and then visualized by detection antibody cocktails (Figure 8). The difference in the spot intensity between untreated (control) and treated cells is proportional to change in the amount of the phosphorylated protein induced by 4e.
The phosphorylation profile of 48 kinases was performed using the Proteome Profiler Human Phospho-Kinase Antibody Array Kit by R&D Systems (Minneapolis, MN, USA) according to the protocol. Briefly, the total cellular protein was extracted using the Lysis buffer and was quantified using Bio-Rad DC Protein Assay kit (Hercules, CA, USA). Nitrocellulose membrane set (A&B), pre-spotted with kinase-specific capture antibodies, were first blocked with Array Buffer-1 at RT for 30 min on a rocking platform shaker. Approximately 600 µg of protein concentrate was diluted in the buffer provided and was added onto the membrane set, and the membranes were incubated overnight at 4°C in an 8-well plate. Subsequently, membranes were washed with Wash Buffer and incubated with appropriate Detection Antibody cocktails for 2 h at RT. Streptavadin-HRP (1:2000) was added onto membranes and incubated for 30 min at RT. Membranes were washed, and Chemiluminescent Detection Reagents 1&2 were applied in equal volumes for detection. The signals were detected on C-DiGit®Blot Scanner (LI-COR, Odyssey Imaging Systems, Lincoln, Nebraska, USA) using Image Studio 5.0 software.

[2] = target: T1, TEC (Homo sapiens, UniProt P42680); test: PamChip tyrosine kinase microarray, TEC; format: biochemical; conditions: 4e 0.1 µM, HL60 lysate
T1 construct: endogenous in cells; host or cells: HL60 lysate
T1 sequence (P42680 1-631): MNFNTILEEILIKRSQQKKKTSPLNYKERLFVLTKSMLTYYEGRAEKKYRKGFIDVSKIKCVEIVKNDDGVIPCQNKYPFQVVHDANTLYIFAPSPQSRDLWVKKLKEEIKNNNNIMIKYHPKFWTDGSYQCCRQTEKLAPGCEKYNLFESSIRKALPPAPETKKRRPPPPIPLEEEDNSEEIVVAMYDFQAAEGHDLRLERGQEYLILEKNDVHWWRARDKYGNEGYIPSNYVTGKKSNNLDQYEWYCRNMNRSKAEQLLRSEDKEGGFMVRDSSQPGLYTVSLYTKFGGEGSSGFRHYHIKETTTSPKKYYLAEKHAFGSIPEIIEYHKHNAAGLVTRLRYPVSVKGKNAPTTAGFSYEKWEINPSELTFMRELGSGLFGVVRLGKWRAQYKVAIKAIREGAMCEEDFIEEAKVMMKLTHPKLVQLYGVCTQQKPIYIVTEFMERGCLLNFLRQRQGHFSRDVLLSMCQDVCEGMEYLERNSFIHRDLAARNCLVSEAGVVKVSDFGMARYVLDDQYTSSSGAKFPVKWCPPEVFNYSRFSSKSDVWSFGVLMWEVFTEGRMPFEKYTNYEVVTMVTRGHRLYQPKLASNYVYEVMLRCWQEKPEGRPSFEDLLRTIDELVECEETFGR
Method: (§1) The changes in kinase activities induced by treatment with 4e were monitored within the HL60 cell lines using PamGene’s (Hertogenbosch, Netherlands) PamChip® peptide microarray profiler, which quantifies the activities of 144 tyrosine kinases (YK) ([29], [30]) (Figure 7). Results are provided as a log fold change (LFC) heatmap and Mean Kinase Statistic. From the LFC it is apparent that compound 4e, at a concentration of 0.1 µM, induced sizable changes to the activity of several kinases within the cell signaling YK profile (Figure 7A).
(§2) An Upstream Kinase tool was used to generate a putative list of kinases responsible for phosphorylating the phospho-sites on the PamChip (Figure 7B) ([31]). It is an interpretation and is highly dependent on the contents of the underlying phosphorylation databases. A Kinase Score was used for ranking kinases based on their significance and specificity in terms of the set of peptides used for the corresponding kinase. Kinase Statistics indicates the overall change of the peptide set that represents the kinase. Kinase statistics value <0 indicates lower kinase activity in the compound spiked lysate and vice versa ([32], [33]). Table 5 lists the 20 most changed kinases within treated HL60 cell lysates by 0.1 μM 4e, ranked according to their Kinase Score.
The compound 4e was spiked into HL60 cell lysate at different concentrations (0.001, 0.01, 0.1, 1, 10 and 50 μM). In addition, DMSO was also spiked in HL60 lysate at low concentration (2% v/v) as control. Samples were profiled on PamGene’s Tyrosine Kinase (PTK) arrays in technical replicates, covering a total of 196 phosphorylation sites. Frozen HL60 cultured cell pellet was sent to PamGene. At PamGene, cells were lysed using a lysis buffer and proteases inhibitors cocktail. Protein concentration was measured using standard Bradford assay as per PamGene SOPs. These lysates were further used for generating the PTK activity profiles. For spiking, 4e was received as powder form and dissolved in DMSO at PamGene facility followed by storing at -20°C in small aliquots. PamGene used its in-house bioinformatics toolbox in combination with other methods to generate hypotheses of signaling pathways.

[3] = system: Blk; test: PamChip tyrosine kinase microarray, Blk; format: biochemical, human; conditions: 4e 0.1 µM, HL60 lysate
Method: as §1, §2
The two multiple-kinase tests (PamChip and Phosphokinase Profiler) provided strong evidence of very minor involvement of Src in the cellular activities of 4e. However, the question must be raised about the effect of the 4e on other SRC family kinase (SFK). To address this point, we must highlight that both R&D phosphokinase profiler and PamChip feature Yes, Fgr, Lyn, Lck and Src while Fyn, Hck, Blk and Frk activities are tested in the PamChip only. The signals of SFKs in the R&D Phosphokinase Profiler were too weak to detect in both untreated (control) and 4e-treated HL60 cells. In PamChip assay, most of SFK’s were not ranked in the top 20 affected kinases (Table 5). In addition, their Specificity Score were very low (Table 6) indicating their marginal importance to the cell killing activities of 4e. Fgr kinase which ranked 7th in the list (Table 5) was the only SFK member that seems to be affected by the compound, albeit with low Specificity Score (1.03).
The compound 4e was spiked into HL60 cell lysate at different concentrations (0.001, 0.01, 0.1, 1, 10 and 50 μM). In addition, DMSO was also spiked in HL60 lysate at low concentration (2% v/v) as control. Samples were profiled on PamGene’s Tyrosine Kinase (PTK) arrays in technical replicates, covering a total of 196 phosphorylation sites. Frozen HL60 cultured cell pellet was sent to PamGene. […] Protein concentration was measured using standard Bradford assay as per PamGene SOPs. […]

Question: How did the “phosphokinase signal after 4e exposure, C-Jun” value ([1]; HL60 cell lysate, treated) turn out when `O=C(Cc1ccc(NC(=O)c2cccc(Cl)c2)cc1)NCc1ccccc1` [Compound 4e, N-(4-(2-(benzylamino)-2-oxoethyl)phenyl)-3-chlorobenzamide] was run?
Answer: 1811.31

Question: And the “Change in Signal, C-Jun” value ([1]; treated vs untreated HL60)?
Answer: 829.81

Question: What about the “% Change, C-Jun” value ([1]; treated vs untreated HL60, Ser63 phosphorylation increase) of the same molecule?
Answer: 84% and 84.55%

Question: And the “Mean Final Score” value [2]?
Answer: 1.9733

Question: And the “Mean Kinase Statistic” value [2]?
Answer: -0.5256

Question: What about the “Mean Significance Score” value [2] of the same molecule?
Answer: 1.3350

Question: What about the “Mean Specificity Score” value [2] of the same molecule?
Answer: 0.6383

Question: What about the “Mean Final Score” value [3] of the same molecule?
Answer: 0.7362

Question: And the “Mean Kinase Statistic” value [3]?
Answer: -0.3552

Question: What about the “Mean Significance Score” value [3] of the same molecule?
Answer: 0.6625

Question: And the “Mean Specificity Score” value [3]?
Answer: 0.0736
